Assay results as given in patent US20210380606A1, “5-AZAINDAZOLE DERIVATIVES AS ADENOSINE RECEPTOR ANTAGONISTS” (Merck Patent GmbH, priority 2018, published 2021).

Key:
[1] = target: T1, human A2A receptors (Homo sapiens, UniProt P29274); test: Functional human A2A receptor activity, recombinant HEK293 cells, cAMP (HTRF); format: cell-based; settings: read-out: A2A (Category)
T1 construct: expressed in transfected cells; host or cells: HEK293
Experimental: (§1) The functional activities of human A2A and A2B receptors were determined by quantification of cAMP, being the second messenger for adenosine receptors.
(§2) After a 15 min incubation, HTRF reagents (cAMP dynamic 2, Cis Bio) were added and the cellular cAMP levels were determined using the ENVISION (Perkin Elmer) plate reader.

[2] = target: T2, human A2B receptors (Homo sapiens, UniProt P29275); test: Functional human A2B receptor activity, recombinant HEK293 cells, cAMP (HTRF); format: cell-based; settings: read-out: A2B (Category)
T2 construct: expressed in transfected cells; host or cells: HEK293
T2 sequence (P29275 1-332): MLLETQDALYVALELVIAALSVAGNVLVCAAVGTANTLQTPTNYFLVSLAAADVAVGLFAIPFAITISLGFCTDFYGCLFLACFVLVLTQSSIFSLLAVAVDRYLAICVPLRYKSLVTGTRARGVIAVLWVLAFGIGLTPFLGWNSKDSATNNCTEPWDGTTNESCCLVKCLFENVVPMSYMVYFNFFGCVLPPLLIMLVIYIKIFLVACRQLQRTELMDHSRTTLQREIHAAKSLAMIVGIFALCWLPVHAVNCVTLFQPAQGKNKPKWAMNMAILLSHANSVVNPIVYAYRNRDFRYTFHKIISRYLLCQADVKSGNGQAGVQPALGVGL
Experimental: as §1, §2

T1 sequence (P29274 whole entry): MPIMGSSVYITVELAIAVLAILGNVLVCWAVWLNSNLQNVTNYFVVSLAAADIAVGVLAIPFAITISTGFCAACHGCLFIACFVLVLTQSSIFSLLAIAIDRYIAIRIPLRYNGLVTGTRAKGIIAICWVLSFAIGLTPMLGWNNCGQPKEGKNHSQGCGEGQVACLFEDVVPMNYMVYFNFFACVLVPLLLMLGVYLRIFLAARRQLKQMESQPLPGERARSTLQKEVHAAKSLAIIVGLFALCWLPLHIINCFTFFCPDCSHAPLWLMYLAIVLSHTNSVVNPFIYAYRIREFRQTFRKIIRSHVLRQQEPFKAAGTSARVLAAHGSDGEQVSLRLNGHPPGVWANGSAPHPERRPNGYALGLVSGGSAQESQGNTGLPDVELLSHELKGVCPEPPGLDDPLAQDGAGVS

IC50 [1] [nM]	IC50 [2] [nM]	Structure (SMILES)
< 100	< 1000	CS(=O)(=O)Cn1nc(-c2cnn3ccncc23)c2cnc(C(=O)N3CCCOCC3)cc21 [Compound 250, (1-Methanesulfonylmethyl-3-pyrazolo[1,5-a]pyrazin-3-yl-1H-pyrazolo[4,3-c]pyridin-6-yl)-(1,4-oxazepan-4-yl)methanone]
< 100	< 100	O=C(c1cc2c(cn1)c(-c1coc3ccccc13)nn2CC(F)(F)F)N1CC2CCC(C1)C2O (stereo not drawn) [Compound 218, [3-Benzofuran-3-yl-1-(2,2,2-trifluoro-ethyl)-1H-pyrazolo[4,3-c]pyridin-6-yl]-(8-endo-hydroxy-3-aza-bicyclo[3.2.1]oct-3-yl)-methanone]
< 100	< 100	CS(=O)(=O)Cn1nc(-c2coc3ccc(F)cc23)c2cnc(C(=O)N3CCCOCC3)cc21 [Compound 110, [3-(5-fluorobenzofuran-3-yl)-1-(methylsulfonylmethyl)pyrazolo[4,3-c]pyridin-6-yl]-(1,4-oxazepan-4-yl)methanone]
< 100	< 1000	O=C(c1cc2c(cn1)c(-c1cnc3c(F)cc(F)cn13)nn2CC(F)(F)F)N1CCOCC(F)(F)C1 [Compound 185, [3-(6,8-Difluoro-imidazo[1,2-a]pyridin-3-yl)-1-(2,2,2-trifluoro-ethyl)-1H-pyrazolo[4,3-c]pyridin-6-yl]-(6,6-difluoro-1,4-oxazepan-4-yl)-methanone]
< 100	< 1000	N#CCn1nc(-c2coc3ccccc23)c2cnc(C(=O)N3CCCOCC3)cc21 [Compound 13, [3-Benzofuran-3-yl-6-(1,4-oxazepane-4-carbonyl)-pyrazolo[4,3-c]pyridin-1-yl]-acetonitrile]
< 100	< 1000	O=C(c1cc2c(cn1)c(-c1cnc3ccc(F)cn13)nn2CCF)N1CCCCCC1 [Compound 4, Azepan-1-yl-[1-(2-fluoro-ethyl)-3-(6-fluoro-imidazo[1,2-a]pyridin-3-yl)-1H-pyrazolo[4,3-c]pyridin-6-yl]-methenone]
< 100	< 1000	O=C(c1cc2c(cn1)c(-c1coc3ccccc13)nn2CC(F)(F)F)N1CCC(F)CC1 [Compound 216, [3-Benzofuran-3-yl-1-(2,2,2-trifluoro-ethyl)-1H-pyrazolo[4,3-c]pyridin-6-yl]-(4-fluoro-piperidin-1-yl)-methanone]
< 100	< 1000	CC1(O)CC2CC1CN2C(=O)c1cc2c(cn1)c(-c1coc3ccccc13)nn2CC(F)(F)F (stereo not drawn) [Compound 211, [3-Benzofuran-3-yl-1-(2,2,2-trifluoro-ethyl)-1H-pyrazolo[4,3-c]pyridin-6-yl]-(5-endo-hydroxy-5-exo-methyl-2-aza-bicyclo[2.2.1]hept-2-yl)-methanone]
< 100	< 1000	O=C(c1cc2c(cn1)c(-c1cnc3c(F)cc(F)cn13)nn2CC(F)(F)F)N1CCCS(=O)(=O)CC1 [Compound 180, [3-(6,8-Difluoro-imidazo[1,2-a]pyridin-3-yl)-1-(2,2,2-trifluoro-ethyl)-1H-pyrazolo[4,3-c]pyridin-6-yl]-1,4-thiazepan-1,1-dioxide-4-yl-methanone]
< 100	< 100	O=C(c1cc2c(cn1)c(-c1coc3ccccc13)nn2CC(F)(F)F)N1CCCCCC1 [Compound 90, Azepan-1-yl-[3-benzofuran-3-yl-1-(2,2,2-trifluoro-ethyl)-1H-pyrazolo[4,3-c]pyridin-6-yl]-methanone]
< 100	< 1000	C[C@@]1(O)C[C@H]2C[C@@H]1CN2C(=O)c1cc2c(cn1)c(-c1coc3ccccc13)nn2CS(C)(=O)=O (relative stereo) [Compound 31, (3-Benzofuran-3-yl-1-methanesulfonylmethyl-1H-pyrazolo[4,3-c]pyridin-6-yl)-(5-endo-hydroxy-5-exo-methyl-2-aza-bicyclo[2.2.1]hept-2-yl)-methanone]
< 100	< 1000	O=C(c1cc2c(cn1)c(-c1c[nH]c3ccccc13)nn2CC(F)(F)F)N1CCCOCC1 [Compound 96, [3-(1H-Indol-3-yl)-1-(2,2,2-trifluoro-ethyl)-1H-pyrazolo[4,3-c]pyridine-6-yl]-1,4-oxazepan-4-yl-methanone]
< 100	< 1000	O=C(c1cc2c(cn1)c(-c1cnc3c(F)cc(F)cn13)nn2CC(F)(F)F)N1CCCC(F)(F)C1 [Compound 159, [3-(6,8-Difluoro-imidazo[1,2-a]pyridin-3-yl)-1-(2,2,2-trifluoro-ethyl)-1H-pyrazolo[4,3-c]pyridin-6-yl]-(3,3-difluoro-piperidin-1-yl)-methanone]
< 100	< 1000	O=C(c1cc2c(cn1)c(-c1cnn3ccncc13)nn2CC(F)(F)F)N1CCCOCC1 [Compound 249, 1,4-Oxazepan-4-yl-[3-pyrazolo[1,5-a]pyrazin-3-yl-1-(2,2,2-trifluoro-ethyl)-1H-pyrazolo[4,3-c]pyridin-6-yl]-methanone]
< 100	< 100	O=C(c1cc2c(cn1)c(-c1coc3ccccc13)nn2CC(F)(F)F)N1CCC(O)CC1 [Compound 207, [3-Benzofuran-3-yl-1-(2,2,2-trifluoro-ethyl)-1H-pyrazolo[4,3-c]pyridin-6-yl]-(4-hydroxy-piperidin-1-yl)-methanone]
< 100	< 1000	CS(=O)(=O)Cn1nc(-c2cnn3ccccc23)c2cnc(C(=O)N3CC4CCC(C4)C3)cc21 [Compound 18, (3-Aza-bicyclo[3.2.1]oct-3-yl)-(1-methanesulfonylmethyl-3-pyrazolo[1,5-a]pyridin-3-yl-1H-pyrazolo[4,3-c]pyridin-6-yl)-methanone]
< 100	< 1000	O=C(c1cc2c(cn1)c(-c1cnc3c(F)cc(F)cn13)nn2CC(F)(F)F)N1CCOCC(O)C1 (stereo not shown) [Compound 193, [3-(6,8-Difluoro-imidazo[1,2-a]pyridin-3-yl)-1-(2,2,2-trifluoro-ethyl)-1H-pyrazolo[4,3-c]pyridin-6-yl]-(6-hydroxy-1,4-oxazepan-4-yl)-methanone]
< 100	< 1000	Cc1ccc2ncc(-c3nn(CC(F)(F)F)c4cc(C(=O)N5CCCCCC5)ncc34)n2c1 [Compound 61, Azepan-1-yl-[3-(6-methyl-imidazo[1,2-a]pyridin-3-yl)-1-(2,2,2-trifluoro-ethyl)-1H-pyrazolo[4,3-c]pyridin-6-yl]-methanone]
< 100	< 1000	O=C(c1cc2c(cn1)c(-c1coc3ccccc13)nn2CC(F)(F)F)N1CCC(F)(F)CC1 [Compound 225, [3-(benzofuran-3-yl)-1-(2,2,2-trifluoroethyl)pyrazolo[4,3-c]pyridin-6-yl]-(4,4-difluoro-1-piperidyl)methanone]
< 100	< 1000	CC1(C)CC(O)CCN1C(=O)c1cc2c(cn1)c(-c1cnc3c(F)cc(F)cn13)nn2CC(F)(F)F (stereo not shown) [Compound 142, [3-(6,8-Difluoro-imidazo[1,2-a]pyridin-3-yl)-1-(2,2,2-trifluoro-ethyl)-1H-pyrazolo[4,3-c]pyridin-6-yl]-(4-hydroxy-2,2-dimethyl-piperidin-1-yl)-methanone]
< 100	< 100	CS(=O)(=O)Cn1nc(-c2cnc3c(F)cc(F)cn23)c2cnc(C(=O)N3CC4CCC(C4)C3)cc21 [Compound 23, (3-Aza-bicyclo[3.2.1]oct-3-yl)-[3-(6,8-difluoro-imidazo[1,2-a]pyridin-3-yl)-1-methanesulfonylmethyl-1H-pyrazolo[4,3-c]pyridin-6-yl]-methanone]
< 100	< 1000	CC1(C)CC(O)CCN1C(=O)c1cc2c(cn1)c(-c1coc3ccccc13)nn2CC(F)(F)F (stereo not shown) [Compound 219, [3-Benzofuran-3-yl-1-(2,2,2-trifluoro-ethyl)-1H-pyrazolo[4,3-c]pyridin-6-yl]-(4-hydroxy-2,2-dimethyl-piperidin-1-yl)-methanone]
< 100	< 1000	COCC1CCCN1C(=O)c1cc2c(cn1)c(-c1cnc3c(F)cc(F)cn13)nn2CC(F)(F)F (stereo not shown) [Compound 149, [3-(6,8-Difluoro-imidazo[1,2-a]pyridin-3-yl)-1-(2,2,2-trifluoro-ethyl)-1H-pyrazolo[4,3-c]pyridin-6-yl]-(2-methoxymethyl-pyrrolidin-1-yl)-methanone]

Structure (SMILES)	IC50 [1] [nM]	IC50 [2] [nM]
O=C(c1cc2c(cn1)c(-c1cnc3ccccn13)nn2CC(F)(F)F)N1[C@@H]2CC[C@H]1C[C@@H](O)C2 [Compound 87, [3-(imidazo[1,2-a]pyridin-3-yl)-1-(2,2,2-trifluoroethyl)pyrazolo[4,3-c]pyridin-6-yl]-(3-endo-hydroxy-8-azabicyclo[3.2.1]octan-8-yl)methanone]	< 100	< 1000
O=C(c1cc2c(cn1)c(-c1cnn3ccccc13)nn2CC(F)(F)F)N1[C@@H]2CC[C@H]1C[C@@H](O)C2 [Compound 113, (3-endo-hydroxy-8-azabicyclo[3.2.1]octan-8-yl)-[3-pyrazolo[1,5-a]pyridin-3-yl-1-(2,2,2-trifluoroethyl)pyrazolo[4,3-c]pyridin-6-yl]methanone]	< 100	< 100
CCCn1nc(-c2coc3ccccc23)c2cnc(C(=O)N3[C@@H]4CC[C@H]3C[C@@H](O)C4)cc21 [Compound 222, (3-Benzofuran-3-yl-1-propyl-1H-pyrazolo[4,3-c]pyridin-6-yl)-(3-endo-hydroxy-8-aza-bicyclo[3.2.1]oct-8-yl)-methanone]	< 100	< 1000
